Measured values published in paper PMC3723327 (Journal of biomolecular screening, 2012).

Legend:
MEKK2 [1] = biological target: T1, MEKK2 (Homo sapiens, UniProt Q9Y2U5); assay: MEKK2 TR-FRET binding assay; details: 5 nM MEKK2, 25 nM kinase tracer 236
T1 sequence (Q9Y2U5 1-619): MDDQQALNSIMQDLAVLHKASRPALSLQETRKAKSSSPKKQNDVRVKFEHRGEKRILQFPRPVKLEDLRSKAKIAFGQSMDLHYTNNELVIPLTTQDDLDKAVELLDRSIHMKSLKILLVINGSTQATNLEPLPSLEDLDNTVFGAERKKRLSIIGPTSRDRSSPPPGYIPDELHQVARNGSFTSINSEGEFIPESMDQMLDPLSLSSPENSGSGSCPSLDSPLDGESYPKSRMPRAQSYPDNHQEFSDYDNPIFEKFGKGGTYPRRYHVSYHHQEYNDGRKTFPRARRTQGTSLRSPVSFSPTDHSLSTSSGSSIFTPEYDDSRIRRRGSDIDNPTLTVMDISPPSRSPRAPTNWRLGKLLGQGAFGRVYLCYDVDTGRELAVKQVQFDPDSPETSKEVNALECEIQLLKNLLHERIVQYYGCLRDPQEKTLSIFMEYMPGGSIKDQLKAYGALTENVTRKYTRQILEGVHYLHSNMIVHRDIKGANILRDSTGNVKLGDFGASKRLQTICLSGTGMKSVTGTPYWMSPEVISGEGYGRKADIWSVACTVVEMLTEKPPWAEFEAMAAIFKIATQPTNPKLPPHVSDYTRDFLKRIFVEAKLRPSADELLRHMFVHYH

MEKK2 [2] = biological target: T1, MEKK2; assay: MEKK2 intrinsic ATPase activity assay; format: biochemical; details: for inhibition at 1 µM: read-out: Inhibition in MEKK2 intrinsic ATPase assay screen (hit criterion)
MEKK2 [3] = biological target: T1, MEKK2; assay: MEKK2 transphosphorylation activity assay; format: biochemical; details: 2 nM MEKK2, 200 nM MKK6, 3 μM ATP
MEKK2 [4] = details: read-out: Published MEKK2 Binding Assay IC50; TR-FRET binding assay; ref Invitrogen Lanthascreen Eu Kinase Binding Assay for MEKK2 Validation Packet; cited from earlier work
MEKK2 [5] = biological target: T2, MEKK2 (Homo sapiens, UniProt Q9Y2U5); assay: MEKK2 intrinsic ATPase activity assay; format: biochemical; details: MEKK2 from vendor 3 (catalytic domain only)
T2 sequence (Q9Y2U5 357-619): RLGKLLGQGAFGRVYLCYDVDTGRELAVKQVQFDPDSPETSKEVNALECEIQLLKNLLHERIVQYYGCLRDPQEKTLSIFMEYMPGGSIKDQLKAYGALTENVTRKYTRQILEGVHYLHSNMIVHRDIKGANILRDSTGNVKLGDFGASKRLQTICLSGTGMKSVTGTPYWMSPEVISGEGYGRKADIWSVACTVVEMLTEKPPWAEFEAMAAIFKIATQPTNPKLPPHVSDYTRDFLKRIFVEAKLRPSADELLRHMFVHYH

MEKK2 [6] = assay: MEKK2 intrinsic ATPase activity assay; format: biochemical, human; details: high compound concentrations
[7] = 10 nM MEKK2 (vendor 1), 30 μM ATP

Row | SMILES | Binding Assay Hill Slope ± SD (MEKK2 [1]) | MEKK2 Intrinsic ATPase Assay Hill Slope ± SD (MEKK2 [2]; [7]) | inhibition at 1 µM (MEKK2 [2]) [%] | Transphosphorylation Assay Hill Slope ± SD (MEKK2 [3]) | IC50 (MEKK2 [4]) [µM] | further results
1 | COc1cc(Nc2c(C#N)cnc3cc(OCCCN4CCN(C)CC4)c(OC)cc23)c(Cl)cc1Cl [Bosutinib] | 0.93 ± 0.05 | 1.07 ± 0.09 | ≥ 50 | 1.03 ± 0.21 |  | 
2 | Cc1cc(Nc2cc(N3CCN(C)CC3)nc(Sc3ccc(NC(=O)C4CC4)cc3)n2)[nH]n1 [VX-680] |  | 0.97 ± 0.13 |  |  | 2.3 | 
3 | Cc1nc(Nc2ncc(C(=O)Nc3c(C)cccc3Cl)s2)cc(N2CCN(CCO)CC2)n1 [Dasatinib] |  | 1.10 ± 0.20 |  |  | […] | 
4 | CN[C@@H]1C[C@H]2O[C@@](C)([C@@H]1OC)n1c3ccccc3c3c4c(c5c6ccccc6n2c5c31)C(=O)NC4 [Staurosporine] |  |  |  |  |  | MEKK2 Intrinsic ATPase Assay Hill Slope ± SD (MEKK2 [2]; 1 nM (instead of 10 nM) MEKK2 enzyme): 0.93 ± 0.13
5 | Cc1ccc(Nc2nccc(N(C)c3ccc4c(C)n(C)nc4c3)n2)cc1S(N)(=O)=O [Pazopanib] | 1.05 ± 0.03 | 1.06 ± 0.07 | ≥ 50 |  |  | 
6 | CCN(CC)CCNC(=O)c1c(C)[nH]c(/C=C2\C(=O)Nc3ccc(F)cc32)c1C [Sunitinib] | 0.89 ± 0.04 | 1.06 ± 0.16 |  | 0.96 ± 0.15 | […] | Intrinsic ATPase assay Hill slope ± SD (MEKK2 [5]): 1.01 ± 0.05; Difference in IC50 values between ATPase and binding assay (MEKK2 [2]; ATPase assay vs TR-FRET binding assay): 2.4 fold; Intrinsic ATPase assay Hill slope ± SD (MEKK2 [2]; MEKK2 from vendor 2): 1.01 ± 0.02; Inhibition of ATPase activity at high compound concentrations (MEKK2 [6]): complete inhibition
